Reference: patent US20250296914A1, “ANTIVIRAL COMPOUNDS AND COMPOSITIONS THEREFROM” (CONSEJO SUPERIOR DE INVESTIGACIONES CIENTÍFICAS, priority 2022, published 2025)

Key:
[1] = system: SARS-CoV-2 stock strain NL/2020; assay: Intracellular viral antigen (N protein) accumulation by immunofluorescence, A549-ACE2; assay type: cell-based; settings: Severe acute respiratory syndrome coronavirus 2; A549-ACE2, MOI 0.005, viral antigen staining, 48 h
[2] = in vitro; settings: human
[3] = system: SARS-CoV-2 stock strain NL/2020; assay: Protective effect against virus-induced cytopathic effect (crystal violet staining of Vero-E6 monolayer); assay type: cell-based; settings: Severe acute respiratory syndrome coronavirus 2, Vero C1008, 72 h, Vero-E6, SARS-CoV-2 MOI 0.001, 72 h; for minimal effective concentration: 50 to 0.78 μM tested, read-out: PC MIN (lowest protective concentration); for EC50: lowest fully protecting concentration averaged with next lower dilution, read-out: ESTIMATED EC50
[4] = system: SARS-CoV-2 stock strain NL/2020; assay: Intracellular viral antigen (N protein) accumulation by immunofluorescence, Vero-E6; assay type: cell-based; settings: Severe acute respiratory syndrome coronavirus 2, Vero C1008; Vero-E6, MOI 0.005, viral antigen staining, 24 h
[5] = in vitro; settings: African green monkey
[6] = system: SARS-CoV-2 stock strain NL/2020; assay: Intracellular viral antigen (N protein) accumulation by immunofluorescence, Calu3; assay type: cell-based; settings: Severe acute respiratory syndrome coronavirus 2; Calu-3, MOI 0.005, viral antigen staining, 48 h
[7] = in vitro; settings: human; remark: listed apart in the source
[8] = system: SARS-CoV-2 stock strain NL/2020; assay: Intracellular viral RNA quantification by RT-qPCR in A549-ACE2 cells; assay type: cell-based; settings: for LOG viral RNA reduction: A549-ACE2, MOI 0.005, 48 h, vs DMSO

SMILES | EC50 [1] [nM] | EC90 [1] [nM] | CC50 at 48 h [2] [nM] | minimal effective concentration [3] [µM] | EC50 [3] [nM] | EC50 [4] [nM] | EC90 [4] [nM] | CC50 at 48 h [5] [nM] | EC50 [6] [nM] | EC90 [6] [nM] | CC50 at 48 h [7] [nM] | LOG viral RNA reduction ([8]; compound concentration 4 μM) [LOG] | Prevention of SARS-CoV-2 propagation (in words) ([8]; A549-ACE2, conclusion from Table 5) | LOG viral RNA reduction ([8]; compound concentration 5 μM) [LOG]
COC(=O)c1cc(-c2ccnc(N3CCOCC3)c2)ccc1NC(C#N)[C@H](Cc1c[nH]c2ccccc12)NC(=O)OC(C)(C)C (stereo partly drawn) [(Ian), methyl 2-(((2S)-2-((tert-butoxycarbonyl)amino)-1-cyano-3-(1H-indol-3-yl)propyl)amino)-5-(2-morpholinopyridin-4-yl)benzoate] | 1100 | 6000 | > 50000 | 1.85 | 1390 | – | – | – | – | – | – | – | – | –
COC(=O)c1cc(Br)ccc1NC(C#N)[C@H](Cc1c[nH]c2ccccc12)NC(=O)OC(C)(C)C (stereo partly drawn) [(Ib), methyl 5-bromo-2-(((2S)-2-((tert-butoxycarbonyl)amino)-1-cyano-3-(1H-indol-3-yl)propyl)amino)benzoate] | 1800 | 2700 | – | 0.78 | 580 | 500 | 2200 | > 12500 | 1200 | 2500 | – | – | – | –
CC(C)(C)OC(=O)N[C@@H](Cc1c[nH]c2ccccc12)C(C#N)Nc1ccc(Cl)cc1C(=O)c1ccccc1 (stereo partly drawn) [(Id), (3S)-3-(tert-Butoxycarbonylamino)-4-(1H-indol-3-yl)-2-((2-benzoyl-4-chlorophenyl)amino)butanenitrile] | 600 | 1400 | – | 0.78 | 580 | 200 | 500 | > 50000 | 300 | 1100 | – | – | – | –
COC(=O)c1cc(-c2ccc3c(c2)OCCO3)ccc1NC(C#N)[C@H](Cc1c[nH]c2ccccc12)NC(=O)OC(C)(C)C (stereo partly drawn) [(If), methyl 2-(((2S)-2-((tert-butoxycarbonyl)amino)-1-cyano-3-(1H-indol-3-yl)propyl)amino)-5-(2,3-dihydrobenzo[b][1,4]dioxin-6-yl)benzoate] | 1000 | 1800 | > 50000 | 0.78 | 580 | 1000 | 1800 | > 50000 | 2000 | 4000 | 50000 | 5.14 | effective in preventing propagation of SARS-CoV-2 | –
COC(=O)c1cc(-c2cccc(N3CCOCC3)c2)ccc1NC(C#N)[C@H](Cc1c[nH]c2ccccc12)NC(=O)OC(C)(C)C (stereo partly drawn) [(Ig), methyl 4-(((2S)-2-((tert-butoxycarbonyl)amino)-1-cyano-3-(1H-indol-3-yl)propyl)amino)-3′-morpholino-[1,1′-biphenyl]-3-carboxylate] | 1800 | 8000 | > 50000 | 0.78 | 580 | 1300 | 2000 | > 50000 | 1800 | 8000 | > 50000 | – | – | –
CCOC(=O)c1ccccc1NC(C#N)[C@H](Cc1c[nH]c2ccccc12)NC(=O)OC(C)(C)C (stereo partly drawn) [(Ih), ethyl 2-(((2S)-2-((tert-butoxycarbonyl)amino)-1-cyano-3-(1H-indol-3-yl)propyl)amino)-benzoate] | 4000 | 7000 | – | 1.56 | 1170 | 100 | 2500 | > 12500 | 3700 | 4000 | – | – | – | –
COC(=O)c1ccc(Br)cc1NC(C#N)[C@H](Cc1c[nH]c2ccccc12)NC(=O)OC(C)(C)C (stereo partly drawn) [(Ii), methyl 4-bromo-2-(((2S)-2-((tert-butoxycarbonyl)amino)-1-cyano-3-(1H-indol-3-yl)propyl)-amino)benzoate] | 2000 | 6000 | – | 1.56 | 1170 | 200 | 1400 | > 12500 | < 900 | 2700 | – | – | – | –
COC(=O)c1cc(-c2cc(OC(C)C)ccc2F)ccc1NC(C#N)[C@H](Cc1c[nH]c2ccccc12)NC(=O)OC(C)(C)C (stereo partly drawn) [(Ip), methyl 4-(((2S)-2-((tert-butoxycarbonyl)amino)-1-cyano-3-(1H-indol-3-yl)propyl)amino)-2′-fluoro-5′-isopropoxy-[1,1′-biphenyl]-3-carboxylate] | 5000 | 9000 | – | 1.56 | 1170 | 1500 | 7000 | > 50000 | 1800 | 8000 | – | – | – | –
COC(=O)c1cc(-c2ccc(N3CCOCC3)nc2)ccc1NC(C#N)[C@H](Cc1c[nH]c2ccccc12)NC(=O)OC(C)(C)C (stereo partly drawn) [(Is), methyl 2-(((2S)-2-((tert-butoxycarbonyl)amino)-1-cyano-3-(1H-indol-3-yl)propyl)amino)-5-(6-morpholinopyridin-3-yl)benzoate] | 2000 | 8000 | > 50000 | 1.56 | 1170 | 400 | 1800 | > 50000 | 1300 | 8000 | > 50000 | – | – | –
CCN(CC)c1ccc(-c2ccc(NC(C#N)[C@H](Cc3c[nH]c4ccccc34)NC(=O)OC(C)(C)C)c(C(=O)OC)c2)cc1 (stereo partly drawn) [(Ix), methyl 4-(((2S)-2-((tert-butoxycarbonyl)amino)-1-cyano-3-(1H-indol-3-yl)propyl)amino)-4′-(diethylamino)-[1,1′-biphenyl]-3-carboxylate] | – | – | – | 3.12 | 2340 | – | – | – | – | – | – | – | – | –
CCCOc1ccc(-c2ccc(NC(C#N)[C@H](Cc3c[nH]c4ccccc34)NC(=O)OC(C)(C)C)c(C(=O)OC)c2)cc1 (stereo partly drawn) [(Iy), methyl 4-(((2S)-2-((tert-butoxycarbonyl)amino)-1-cyano-3-(1H-indol-3-yl)propyl)amino)-4′-propoxy-[1,1′-biphenyl]-3-carboxylate] | – | – | – | 3.12 | 2340 | – | – | – | – | – | – | – | – | –
COC(=O)c1cc(-c2cccc(C(C)(C)C)c2)ccc1NC(C#N)[C@H](Cc1c[nH]c2ccccc12)NC(=O)OC(C)(C)C (stereo partly drawn) [(Iz), methyl 4-(((2S)-2-((tert-butoxycarbonyl)amino)-1-cyano-3-(1H-indol-3-yl)propyl)amino)-3′-(tert-butyl)-[1,1′-biphenyl]-3-carboxylate] | – | – | – | 3.12 | 2340 | – | – | – | – | – | – | – | – | –
CCC(CC)COC(=O)[C@H](C)N[P@](=O)(OC[C@H]1O[C@@](C#N)(c2ccc3c(N)ncnn23)[C@H](O)[C@@H]1O)Oc1ccccc1 [Remdesivir, remdesivir, reference compound] | – | – | – | – | – | – | – | – | – | – | – | – | – | 6.67
